“And” between values parts separate entries of the source, which are not always exact repeats. Equal values may be shown once.
Key:
[1] = tested on: patients with STS and other solid tumours; assay: Dose escalation: maximum tolerated dose (MTD) and dose limiting toxicities (DLT); format: in vivo; settings: highest tested dose level (cohort 4)
Method: Belinostat was administered as a 30-minute intravenous infusion every 24 hours on days 1–5 and on day 5 in combination with doxorubicin, in a 3-week schedule, and doxorubicin was given after belinostat. The dose escalation schedule was as follows: belinostat 600 mg/m^2 and 50 mg/m^2 doxorubicin (cohort 1), 600 mg/m^2 and 75 mg/m^2 doxorubicin (cohort 2), 800 mg/m^2 and 75 mg/m^2 doxorubicin (cohort 3), and 1000 mg/m^2 and 75 mg/m^2 doxorubicin (cohort 4).
Patients who achieved clinical benefit from the treatment (objective response or stable disease) could continue belinostat treatment beyond cycle 6. If the maximum cumulative dose of doxorubicin 450 mg/m^2 was reached, the treatment would continue with belinostat as monotherapy. In the phase I part, at least 3 patients were treated at each dose level. If a DLT was found in one of 3 patients, the cohort was expanded to a total of 6 patients.
Adverse events were graded using the NCI common terminology criteria for adverse events (NCI-CTCAE) version 3.0. […]

[2] = Pharmacokinetic analyses, plasma, cycle 1 day 4 and day 5
Method: (§1) The following PK parameters were determined: elimination half-life (t 1/2), maximum concentration (C max), time to maximum concentration (t max), area under the curve (AUC0−tlast and AUC∞), elimination rate constant (λz), and volume of distribution (V c and V ss). Blood sampling for belinostat alone was performed on cycle 1 day 4 (before treatment and 0 min, 5 min, 15 min, 30 min, 1 h, 2 h, 2 h 15 min, 2 h 30 min, 3 h, 4 h, 6 h, 8 h, and 24 h after treatment).

[3] = tested on: solid tumours and haematological neoplasms; parameters: method as in PMID 18245542, PMID 18510700; settings: ref [10], [11], cited from earlier work
[4] = tested on: human tumour xenografts; settings: cited from earlier work
[5] = tested on: soft tissue sarcoma; settings: single-agent doxorubicin, ref [6], cited from earlier work
[6] = in vivo
Method: as §1

With `O=C(/C=C/c1cccc(S(=O)(=O)Nc2ccccc2)c1)NO` [belinostat] the “MTD of belinostat in combination with doxorubicin” value ([1]; 30-minute IV infusion days 1–5, 3-week schedule, doxorubicin on day 5) was 1000 mg/m^2/d, the clearance ([2]; 600 mg/m^2 Bel + 50 mg/m^2 doxorubicin, Day 5 (with doxorubicin), N: 1, individual parameter presented) was 1770 mL/min and the t last ([2]; Median (min–max), 600 mg/m^2 Bel + 50 mg/m^2 doxorubicin, Day 4 (Bel alone), N = 3) was 24.5 (22.4–24.6) h. The t last ([2]; Median (min–max), 600 mg/m^2 Bel + 50 mg/m^2 doxorubicin, Day 5 (with doxorubicin), N = 3) was 17.0 (17.0–20.1) h, the t last ([2]; Median (min–max), 600 mg/m^2 Bel + 75 mg/m^2 doxorubicin, Day 4 (Bel alone), N = 7) was 24.0 (8.55–24.5) h and the t last ([2]; Median (min–max), 600 mg/m^2 Bel + 75 mg/m^2 doxorubicin, Day 5 (with doxorubicin), N = 6) was 24.5 (16.2–24.7) h. The t last ([2]; Median (min–max), 800 mg/m^2 Bel + 75 mg/m^2 doxorubicin, Day 4 (Bel alone), N = 8) was 23.7 (8.47–24.6) h, the t last ([2]; Median (min–max), 800 mg/m^2 Bel + 75 mg/m^2 doxorubicin, Day 5 (with doxorubicin), N = 6) was 15.1 (8.50–24.6) h and the t last ([2]; Median (min–max), 1000 mg/m^2 Bel + 75 mg/m^2 doxorubicin, Day 4 (Bel alone), N = 21) was 8.65 (1.05–24.0) h. The t last ([2]; Median (min–max), 1000 mg/m^2 Bel + 75 mg/m^2 doxorubicin, Day 5 (with doxorubicin), N = 19) was 8.72 (8.50–24.7) h, the “Dose proportionality of pharmacokinetics” value ([2]; belinostat 600–1000 mg/m^2) was “dose-proportional pharmacokinetics” and the “Effect of coadministration of doxorubicin on belinostat exposure” value ([2]; day 5 vs day 4) was “no evidence that coadministration of doxorubicin had any effect”. The AUC(0-t) ([2]; human, plasma, intravenous, 600 mg/m^2, AUC0–tlast, 600 mg/m^2 Bel + 50 mg/m^2 doxorubicin, Day 4 (Bel alone), N = 3) was 10900 ng·h/mL, the AUC(0-t) ([2]; human, plasma, intravenous, 600 mg/m^2, AUC0–tlast, 600 mg/m^2 Bel + 75 mg/m^2 doxorubicin, Day 4 (Bel alone), N = 7) was 9670 ng·h/mL and the Cmax ([2]; human, plasma, intravenous, 600 mg/m^2, C max, 600 mg/m^2 Bel + 50 mg/m^2 doxorubicin, Day 4 (Bel alone), N = 3) was 21100 ng/mL. For the same molecule, the Cmax ([2]; human, plasma, intravenous, 600 mg/m^2, C max, 600 mg/m^2 Bel + 75 mg/m^2 doxorubicin, Day 4 (Bel alone), N = 7) was 16800 ng/mL, the clearance ([2]; human, plasma, intravenous, 600 mg/m^2, CL, 600 mg/m^2 Bel + 75 mg/m^2 doxorubicin, Day 4 (Bel alone), N: 3) was 2150 mL/min and the Vd ([2]; human, plasma, intravenous, 600 mg/m^2, V ss, 600 mg/m^2 Bel + 75 mg/m^2 doxorubicin, Day 4 (Bel alone), N: 3) was 149 L. For the same molecule, the half-life ([2]; human, plasma, intravenous, 600 mg/m^2, t 1/2, 600 mg/m^2 Bel + 75 mg/m^2 doxorubicin, Day 4 (Bel alone), N: 3) was 3.77 h, the Tmax ([2]; human, plasma, intravenous, 600 mg/m^2, t max, Median (min–max), 600 mg/m^2 Bel + 50 mg/m^2 doxorubicin, Day 4 (Bel alone), N = 3) was 0.533 h and the Tmax ([2]; human, plasma, intravenous, 600 mg/m^2, t max, Median (min–max), 600 mg/m^2 Bel + 75 mg/m^2 doxorubicin, Day 4 (Bel alone), N = 7) was 0.567 h. For the same molecule, the AUC(0-t) ([2]; human, plasma, intravenous, 800 mg/m^2, AUC0–tlast, 800 mg/m^2 Bel + 75 mg/m^2 doxorubicin, Day 4 (Bel alone), N = 8) was 12200 ng·h/mL, the Cmax ([2]; human, plasma, intravenous, 800 mg/m^2, C max, 800 mg/m^2 Bel + 75 mg/m^2 doxorubicin, Day 4 (Bel alone), N = 8) was 21400 ng/mL and the clearance ([2]; human, plasma, intravenous, 800 mg/m^2, CL, 800 mg/m^2 Bel + 75 mg/m^2 doxorubicin, Day 4 (Bel alone), N: 4) was 2120 mL/min. The Vd ([2]; human, plasma, intravenous, 800 mg/m^2, V ss, 800 mg/m^2 Bel + 75 mg/m^2 doxorubicin, Day 4 (Bel alone), N: 4) was 107 L, the half-life ([2]; human, plasma, intravenous, 800 mg/m^2, t 1/2, 800 mg/m^2 Bel + 75 mg/m^2 doxorubicin, Day 4 (Bel alone), N: 4) was 1.91 h and the Tmax ([2]; human, plasma, intravenous, 800 mg/m^2, t max, Median (min–max), 800 mg/m^2 Bel + 75 mg/m^2 doxorubicin, Day 4 (Bel alone), N = 8) was 0.533 h. It also gave a half-life ([2]; human, plasma, intravenous, 1000 mg/m2, Geometric mean apparent elimination half-life (t 1/2), belinostat 600, 800 and 1000 mg/m^2, day 4 and day 5, range across groups) of 1.9 to 4.8 h, an AUC(0-t) ([2]; human, plasma, intravenous, 1000 mg/m^2, AUC0–tlast, 1000 mg/m^2 Bel + 75 mg/m^2 doxorubicin, Day 4 (Bel alone), N = 21) of 23100 ng·h/mL and a Cmax ([2]; human, plasma, intravenous, 1000 mg/m^2, C max, 1000 mg/m^2 Bel + 75 mg/m^2 doxorubicin, Day 4 (Bel alone), N = 21) of 41100 ng/mL. It also gave a clearance ([2]; human, plasma, intravenous, 1000 mg/m^2, CL, 1000 mg/m^2 Bel + 75 mg/m^2 doxorubicin, Day 4 (Bel alone), N: 18) of 1360 mL/min, a Vd ([2]; human, plasma, intravenous, 1000 mg/m^2, V ss, 1000 mg/m^2 Bel + 75 mg/m^2 doxorubicin, Day 4 (Bel alone), N: 18) of 51 L and a half-life ([2]; human, plasma, intravenous, 1000 mg/m^2, t 1/2, 1000 mg/m^2 Bel + 75 mg/m^2 doxorubicin, Day 4 (Bel alone), N: 18) of 1.48 h. It also gave a Tmax ([2]; human, plasma, intravenous, 1000 mg/m^2, t max, Median (min–max), 1000 mg/m^2 Bel + 75 mg/m^2 doxorubicin, Day 4 (Bel alone), N = 21) of 0.617 h, an AUC(0-t) ([2]; human, plasma, intravenous, AUC0–tlast, 600 mg/m^2 Bel + 50 mg/m^2 doxorubicin, Day 5 (with doxorubicin), N = 3) of 10400 ng·h/mL and an AUC(0-t) ([2]; human, plasma, intravenous, AUC0–tlast, 600 mg/m^2 Bel + 75 mg/m^2 doxorubicin, Day 5 (with doxorubicin), N = 6) of 10400 ng·h/mL. The AUC(0-t) ([2]; human, plasma, intravenous, AUC0–tlast, 800 mg/m^2 Bel + 75 mg/m^2 doxorubicin, Day 5 (with doxorubicin), N = 6) was 14600 ng·h/mL, the AUC(0-t) ([2]; human, plasma, intravenous, AUC0–tlast, 1000 mg/m^2 Bel + 75 mg/m^2 doxorubicin, Day 5 (with doxorubicin), N = 19) was 22100 ng·h/mL and the Cmax ([2]; human, plasma, intravenous, C max, 600 mg/m^2 Bel + 50 mg/m^2 doxorubicin, Day 5 (with doxorubicin), N = 3) was 18300 ng/mL. It also gave a Cmax ([2]; human, plasma, intravenous, C max, 600 mg/m^2 Bel + 75 mg/m^2 doxorubicin, Day 5 (with doxorubicin), N = 6) of 17400 ng/mL, a Cmax ([2]; human, plasma, intravenous, C max, 800 mg/m^2 Bel + 75 mg/m^2 doxorubicin, Day 5 (with doxorubicin), N = 6) of 26400 ng/mL and a Cmax ([2]; human, plasma, intravenous, C max, 1000 mg/m^2 Bel + 75 mg/m^2 doxorubicin, Day 5 (with doxorubicin), N = 19) of 37000 ng/mL. For the same molecule, the clearance ([2]; human, plasma, intravenous, CL, 600 mg/m^2 Bel + 75 mg/m^2 doxorubicin, Day 5 (with doxorubicin), N: 3) was 1850 mL/min, the clearance ([2]; human, plasma, intravenous, CL, 800 mg/m^2 Bel + 75 mg/m^2 doxorubicin, Day 5 (with doxorubicin), N: 4) was 1520 mL/min and the clearance ([2]; human, plasma, intravenous, CL, 1000 mg/m^2 Bel + 75 mg/m^2 doxorubicin, Day 5 (with doxorubicin), N = 19) was 1420 mL/min. It also gave a Vd ([2]; human, plasma, intravenous, V ss, 600 mg/m^2 Bel + 50 mg/m^2 doxorubicin, Day 5 (with doxorubicin), N: 1, individual parameter presented) of 72.8 L, a Vd ([2]; human, plasma, intravenous, V ss, 600 mg/m^2 Bel + 75 mg/m^2 doxorubicin, Day 5 (with doxorubicin), N: 3) of 90.8 L and a Vd ([2]; human, plasma, intravenous, V ss, 800 mg/m^2 Bel + 75 mg/m^2 doxorubicin, Day 5 (with doxorubicin), N: 4) of 58.3 L. It also gave a Vd ([2]; human, plasma, intravenous, V ss, 1000 mg/m^2 Bel + 75 mg/m^2 doxorubicin, Day 5 (with doxorubicin), N = 19) of 57.6 L, a half-life ([2]; human, plasma, intravenous, t 1/2, 600 mg/m^2 Bel + 50 mg/m^2 doxorubicin, Day 5 (with doxorubicin), N: 1, individual parameter presented) of 2.53 h and a half-life ([2]; human, plasma, intravenous, t 1/2, 600 mg/m^2 Bel + 75 mg/m^2 doxorubicin, Day 5 (with doxorubicin), N: 3) of 4.83 h. It also gave a half-life ([2]; human, plasma, intravenous, t 1/2, 800 mg/m^2 Bel + 75 mg/m^2 doxorubicin, Day 5 (with doxorubicin), N: 4) of 2.14 h, a half-life ([2]; human, plasma, intravenous, t 1/2, 1000 mg/m^2 Bel + 75 mg/m^2 doxorubicin, Day 5 (with doxorubicin), N = 19) of 2.13 h and a Tmax ([2]; human, plasma, intravenous, t max, Median (min–max), 600 mg/m^2 Bel + 50 mg/m^2 doxorubicin, Day 5 (with doxorubicin), N = 3) of 0.567 h. The Tmax ([2]; human, plasma, intravenous, t max, Median (min–max), 600 mg/m^2 Bel + 75 mg/m^2 doxorubicin, Day 5 (with doxorubicin), N = 6) was 0.517 h, the Tmax ([2]; human, plasma, intravenous, t max, Median (min–max), 800 mg/m^2 Bel + 75 mg/m^2 doxorubicin, Day 5 (with doxorubicin), N = 6) was 0.533 h and the Tmax ([2]; human, plasma, intravenous, t max, Median (min–max), 1000 mg/m^2 Bel + 75 mg/m^2 doxorubicin, Day 5 (with doxorubicin), N = 19) was 0.633 h. The “Maximum tolerated dose (MTD), monotherapy” value ([3]; 5 consecutive days repeated in a 3-week schedule) was 1000 mg/m^2/d, the “Duration of prolonged stable disease (SD) in 2 STS patients” value ([3]; belinostat monotherapy, one value per patient) was 7 months and 14 months and the “Toxicity to the host mice” value ([4]; mouse, in vivo) was “without apparent toxicity”. For the same molecule, the “Growth of human tumour xenografts” value ([4]; ref [9]) was “inhibits growth”.

For `COc1cccc2c1C(=O)c1c(O)c3c(c(O)c1C2=O)C[C@@](O)(C(=O)CO)C[C@@H]3O[C@H]1C[C@H](N)[C@H](O)[C@H](C)O1` [doxorubicin], the “MTD of doxorubicin in combination with belinostat” value ([1]; day 5, 3-week schedule) was 75 mg/m^2, the half-life ([2]; human, plasma, intravenous) was 7.6 to 10.8 h and the Tmax ([2]; human, plasma, intravenous, 75 mg/m2, Median t max, doxorubicin 50 or 75 mg/m^2, day 5, range across groups) was 0.24 to 0.5 h. For the same molecule, the “Neutropenia (all grades)” value ([5]; G-CSF allowed) was 37%, the Response rate [5] was 14% and the “Effect of coadministration of belinostat on doxorubicin exposure” value [6] was “no effect”.

— article PMC4923583, “A Phase I/II Clinical Trial of Belinostat (PXD101) in Combination with Doxorubicin in Patients with Soft Tissue Sarcomas” (Sarcoma, 2016)
